Results: US5189016A, “Nutrient compositions containing peptides and method for administering the same” (Clintec Nutrition Co., priority 1990, dated 1993)
Read-outs that look alike come from different tables or passages of the source. Peptide text beside a SMILES is read from it.

Key:
[1] = cited from earlier work
[2] = parameters: species or system piglets; settings: in vivo
Text: In this experiment slightly preterm, colostrum-deprived piglets were maintained on total parenteral nutrition from birth to day 7 of life. All piglets in this study have been enrolled and completed the study period in the University of Florida Piglet Neonatal Intensive Care Unit. Ten piglets in the control group received standard neonatal piglet total parenteral nutrition solution containing amino acids, glucose, lipid, vitamins and minerals. Eleven piglets in the experimental group received the same total […] nutrition formulation with the exception that 20% of the amino acids in the standard solution was replaced with glutamine. […] Nine piglets in each group completed the full 7 days of the study. One piglet in the control group and two piglets in the experimental group became septic. […] To date, the amino acid analyses have been completed on blood samples from six of the piglets in the experimental group and on blood samples from seven of the piglets in the control group.

For `NC(=O)C[C@H](N)C(=O)O` [asparagine], the Solubility in water ([1]; 28° C.) is listed as 3.5 grams/100 mL.
In the case of `N[C@@H](Cc1c[nH]c2ccccc12)C(=O)O` [tryptophan], the Solubility in water ([1]; 25° C.) is listed as 11.4 grams/100 mL.
In the case of `NC(=O)CC[C@H](N)C(=O)O` [Glutamine, glutamine], the Solubility in water ([1]; 30° C.) is listed as 4.8 grams/100 mL.
In the case of `NCC(=O)N[C@@H](CCC(N)=O)C(=O)O` [glycylglutamine dipeptide, glycyl-glutamine] (H-Gly-Gln-OH), the “Adverse effect in septic piglets” value [2] is reported as “signs of severe convulsions”, the “Plasma glutamine concentration, mean” value [2] is reported as 544 nmol/mL and the “Plasma glutamine concentrations compared to control group” value [2] is reported as “increases the plasma glutamine concentrations”.
